Measured values: ChEMBL document CHEMBL1154550, “Isolation of psammaplin A 11'-sulfate and bisaprasin 11'-sulfate from the marine sponge Aplysinella rhax” (J Nat Prod, 2000)
Active and inactive are the calls of the source. The rule behind the calls is not given here.

Tests used:
[1] = target: T1, Adenosine receptor A1 (Rattus norvegicus, UniProt P25099); assay: Displacement of […] from adenosine A1 receptor in rat brain; type: tissue-based
T1 sequence (P25099 whole entry): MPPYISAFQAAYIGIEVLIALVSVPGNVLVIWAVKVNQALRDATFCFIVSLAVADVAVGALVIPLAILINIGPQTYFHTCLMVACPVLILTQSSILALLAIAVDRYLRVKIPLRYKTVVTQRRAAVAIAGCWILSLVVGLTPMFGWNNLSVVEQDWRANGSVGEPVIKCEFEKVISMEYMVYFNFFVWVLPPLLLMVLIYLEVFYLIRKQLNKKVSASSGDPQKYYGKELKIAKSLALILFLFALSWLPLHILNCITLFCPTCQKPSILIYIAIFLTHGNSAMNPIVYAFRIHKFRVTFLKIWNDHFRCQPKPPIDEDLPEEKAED

[2] = target: T2, Adenosine receptor A1 (Rattus norvegicus) (UniProt P25099); assay: Displacement of […] from adenosine A1 receptor in rat brain up to 2.2 mM; type: tissue-based
T2 sequence (whole entry): T1 sequence (P25099 whole entry)

Row | IC50 [1] | Activity [2] | SMILES
1 | 90 µM |  | O=C(NCCSSCCNC(=O)/C(Cc1ccc(OS(=O)(=O)O)c(Br)c1)=N/O)/C(Cc1ccc(O)c(Br)c1)=N/O
2 | 20 µM |  | O=C(NCCSSCCNC(=O)/C(Cc1ccc(O)c(Br)c1)=N/O)/C(Cc1ccc(O)c(Br)c1)=N/O [PSAMMAPLIN A]
3 |  | inactive | O=C(NCCSSCCNC(=O)/C(Cc1cc(Br)c(O)c(-c2cc(C/C(=N\O)C(=O)NCCSSCCNC(=O)/C(Cc3ccc(OS(=O)(=O)O)c(Br)c3)=N/O)cc(Br)c2O)c1)=N/O)/C(Cc1ccc(O)c(Br)c1)=N/O
